Test results published in patent US12077503B2, “Substituted cyclic amides and their use as herbicides” (FMC CORPORATION, priority 2015, dated 2024).

Tests used:
Type in all cases: in vivo
[1] = system: velvetleaf (Abutilon theophrasti); experiment: Test G Pre-Emergence Protocol; conditions: Abutilon theophrasti, pre-emergence, 312 h, evaluated after 13 days; for pest or weed control at 15.625 g/ha: 15.625 g ai/ha; for pest or weed control at 15.625 g/ha / pest or weed control at 250 g/ha: read-out: Velvetleaf damage rating (100=total damage to plant; 0=no damage to plant); for pest or weed control at 62.5 g/ha: 62.5 g ai/ha, 100=total damage to plant, 0=no damage to plant, read-out: plant damage rating, Velvetleaf; for pest or weed control at 250 g/ha: 250 g ai/ha
Summary of the method: (§1)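 Under a 24/16° C day/night regime with 14 h light and 65% humidity, sown pots were sprayed after one day with compound (15.625, 62.5 or 250 g/ha; 50:50 acetone/water, 0.5% Tween 20). Damage was assessed visually 13 days later, 0 to 100.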

[2] = system: giant foxtail (Setaria faberi); experiment: Test G Pre-Emergence Protocol; conditions: Setaria faberi, pre-emergence, 312 h, evaluated after 13 days; for pest or weed control at 15.625 g/ha: 15.625 g ai/ha; for pest or weed control at 15.625 g/ha / pest or weed control at 250 g/ha: read-out: Foxtail, Giant damage rating (100=total damage to plant; 0=no damage to plant); for pest or weed control at 62.5 g/ha: 62.5 g ai/ha, 100=total damage to plant, 0=no damage to plant, read-out: plant damage rating, Foxtail, Giant; for pest or weed control at 250 g/ha: 250 g ai/ha
Summary of the method: as §1

[3] = system: redroot pigweed (Amaranthus retroflexus); experiment: Test G Pre-Emergence Protocol; conditions: Amaranthus retroflexus, pre-emergence, 312 h, evaluated after 13 days; for pest or weed control at 15.625 g/ha: 15.625 g ai/ha; for pest or weed control at 15.625 g/ha / pest or weed control at 250 g/ha: read-out: Pigweed, Redroot damage rating (100=total damage to plant; 0=no damage to plant); for pest or weed control at 62.5 g/ha: 62.5 g ai/ha, 100=total damage to plant, 0=no damage to plant, read-out: plant damage rating, Pigweed, Redroot; for pest or weed control at 250 g/ha: 250 g ai/ha
Summary of the method: as §1

[4] = system: barnyardgrass (Echinochloa crus-galli); experiment: Test G Pre-Emergence Protocol; conditions: Echinochloa crus-galli, pre-emergence, 312 h, evaluated after 13 days; for pest or weed control at 15.625 g/ha: 15.625 g ai/ha, read-out: Barnyard grass damage rating (100=total damage to plant; 0=no damage to plant); for pest or weed control at 62.5 g/ha: 62.5 g ai/ha, 100=total damage to plant, 0=no damage to plant, read-out: plant damage rating, Barnyardgrass; for pest or weed control at 250 g/ha: 250 g ai/ha, read-out: Barnyardgrass damage rating (100=total damage to plant; 0=no damage to plant)
Summary of the method: as §1

[5] = system: ivy-leaved morning glory (Ipomoea hederacea); experiment: Test G Pre-Emergence Protocol; conditions: Ipomoea, pre-emergence, 312 h, evaluated after 13 days; for pest or weed control at 62.5 g/ha: 62.5 g ai/ha, 100=total damage to plant, 0=no damage to plant, read-out: plant damage rating, Morningglory, Ivy-leaved; for pest or weed control at 250 g/ha: 250 g ai/ha, read-out: Morningglory, Ivy-leaved damage rating (100=total damage to plant; 0=no damage to plant)
Summary of the method: as §1

corn (Zea mays) [6] = experiment: Test G Pre-Emergence Protocol; conditions: Zea mays, pre-emergence, 312 h, evaluated after 13 days; for plant injury at 15.625 g/ha: 15.625 g ai/ha; for plant injury at 15.625 g/ha / plant injury at 250 g/ha: read-out: Corn damage rating (100=total damage to plant; 0=no damage to plant); for plant injury at 62.5 g/ha: 62.5 g ai/ha, 100=total damage to plant, 0=no damage to plant, read-out: plant damage rating, Corn; for plant injury at 250 g/ha: 250 g ai/ha
Summary of the method: as §1

[7] = system: velvetleaf (Abutilon theophrasti); experiment: Test G Post-Emergence Protocol; conditions: Abutilon theophrasti, post-emergence, 312 h; for pest or weed control at 15.625 g/ha: 15.625 g ai/ha, evaluated after 13 days (100=total damage to plant; 0=no damage to plant), read-out: Velvetleaf damage rating; for pest or weed control at 62.5 g/ha: 62.5 g ai/ha, read-out: Velvetleaf damage rating (100=total damage to plant; 0=no damage to plant); for pest or weed control at 62.5 g/ha / pest or weed control at 250 g/ha: evaluated after 13 days; for pest or weed control at 250 g/ha: 250 g ai/ha, read-out: damage to plant, Velvetleaf (100=total damage to plant; 0=no damage to plant)
Summary of the method: (§2)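 Damage was rated 13 days after treatment from 0 (none) to 100 (plant killed). Compound was applied as a spray at 15.625, 62.5 or 250 g/ha in 50:50 acetone/water containing 0.5% Tween 20, onto 8-day-old potted plants kept in a glasshouse (24/16 °C, 14 h light, 65% humidity).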

[8] = system: giant foxtail (Setaria faberi); experiment: Test G Post-Emergence Protocol; conditions: Setaria faberi, post-emergence, 312 h; for pest or weed control at 15.625 g/ha: 15.625 g ai/ha, evaluated after 13 days (100=total damage to plant; 0=no damage to plant), read-out: Foxtail, Giant damage rating; for pest or weed control at 62.5 g/ha: 62.5 g ai/ha, read-out: Foxtail, Giant damage rating (100=total damage to plant; 0=no damage to plant); for pest or weed control at 62.5 g/ha / pest or weed control at 250 g/ha: evaluated after 13 days; for pest or weed control at 250 g/ha: 250 g ai/ha, read-out: damage to plant, Foxtail, Giant (100=total damage to plant; 0=no damage to plant)
Summary of the method: as §2

[9] = system: redroot pigweed (Amaranthus retroflexus); experiment: Test G Post-Emergence Protocol; conditions: Amaranthus retroflexus, post-emergence, 312 h; for pest or weed control at 15.625 g/ha: 15.625 g ai/ha, evaluated after 13 days (100=total damage to plant; 0=no damage to plant), read-out: Pigweed, Redroot damage rating; for pest or weed control at 62.5 g/ha: 62.5 g ai/ha, read-out: Pigweed, Redroot damage rating (100=total damage to plant; 0=no damage to plant); for pest or weed control at 62.5 g/ha / pest or weed control at 250 g/ha: evaluated after 13 days; for pest or weed control at 250 g/ha: 250 g ai/ha, read-out: damage to plant, Pigweed, Redroot (100=total damage to plant; 0=no damage to plant)
Summary of the method: as §2

[10] = system: barnyardgrass (Echinochloa crus-galli); experiment: Test G Post-Emergence Protocol; conditions: Echinochloa crus-galli, post-emergence, 312 h; for pest or weed control at 15.625 g/ha: 15.625 g ai/ha, evaluated after 13 days (100=total damage to plant; 0=no damage to plant), read-out: Barnyardgrass damage rating; for pest or weed control at 62.5 g/ha: 62.5 g ai/ha, read-out: Barnyardgrass damage rating (100=total damage to plant; 0=no damage to plant); for pest or weed control at 62.5 g/ha / pest or weed control at 250 g/ha: evaluated after 13 days; for pest or weed control at 250 g/ha: 250 g ai/ha, read-out: damage to plant, Barnyardgrass (100=total damage to plant; 0=no damage to plant)
Summary of the method: as §2

[11] = system: ivy-leaved morning glory (Ipomoea hederacea); experiment: Test G Post-Emergence Protocol; conditions: Ipomoea, post-emergence, 312 h; for pest or weed control at 15.625 g/ha: 15.625 g ai/ha, evaluated after 13 days (100=total damage to plant; 0=no damage to plant), read-out: Morningglory, Ivy-leaved damage rating; for pest or weed control at 62.5 g/ha: 62.5 g ai/ha, read-out: Morningglory, Ivy-leaved damage rating (100=total damage to plant; 0=no damage to plant); for pest or weed control at 62.5 g/ha / pest or weed control at 250 g/ha: evaluated after 13 days; for pest or weed control at 250 g/ha: 250 g ai/ha, read-out: damage to plant, Morningglory, Ivy-leaved (100=total damage to plant; 0=no damage to plant)
Summary of the method: as §2

corn (Zea mays) [12] = experiment: Test G Post-Emergence Protocol; conditions: Zea mays, post-emergence, 312 h; for plant injury at 15.625 g/ha: 15.625 g ai/ha, evaluated after 13 days (100=total damage to plant; 0=no damage to plant), read-out: Corn damage rating; for plant injury at 62.5 g/ha: 62.5 g ai/ha, read-out: Corn damage rating (100=total damage to plant; 0=no damage to plant); for plant injury at 62.5 g/ha / plant injury at 250 g/ha: evaluated after 13 days; for plant injury at 250 g/ha: 250 g ai/ha, read-out: damage to plant, Corn (100=total damage to plant; 0=no damage to plant)
Summary of the method: as §2

CN1C[C@H](c2ccc(C(F)F)cc2)[C@@H](C(=O)Nc2ccccc2F)C1=O (racemic) [Compound 1454]
20%: pest or weed control at 62.5 g/ha [1] | pest or weed control at 15.625 g/ha [4] | pest or weed control at 15.625 g/ha ([5]; 15.625 g ai/ha, read-out: Morning-glory, Ivy-leaved damage rating (100=total damage to plant; 0=no damage to plant)) | pest or weed control at 62.5 g/ha [9] | pest or weed control at 250 g/ha [9] | pest or weed control at 62.5 g/ha [10] | pest or weed control at 250 g/ha [10] | plant injury at 62.5 g/ha (corn (Zea mays) [12])
70%: pest or weed control at 62.5 g/ha [2] | pest or weed control at 250 g/ha [3] | pest or weed control at 250 g/ha [4]
60%: pest or weed control at 250 g/ha [1] | pest or weed control at 62.5 g/ha [4] | plant injury at 250 g/ha (corn (Zea mays) [6]) | pest or weed control at 62.5 g/ha [8] | pest or weed control at 250 g/ha [8]
30%: pest or weed control at 15.625 g/ha [8] | plant injury at 250 g/ha (corn (Zea mays) [12])
50%: pest or weed control at 15.625 g/ha [2]
0%: pest or weed control at 15.625 g/ha [1] | pest or weed control at 15.625 g/ha [3] | pest or weed control at 62.5 g/ha [3] | plant injury at 15.625 g/ha (corn (Zea mays) [6]) | pest or weed control at 15.625 g/ha [7] | pest or weed control at 62.5 g/ha [7] | pest or weed control at 15.625 g/ha [9] | pest or weed control at 15.625 g/ha [10]
10%: pest or weed control at 62.5 g/ha [5] | pest or weed control at 250 g/ha [5] | plant injury at 62.5 g/ha (corn (Zea mays) [6]) | pest or weed control at 250 g/ha [7] | pest or weed control at 15.625 g/ha [11] | pest or weed control at 62.5 g/ha [11] | pest or weed control at 250 g/ha [11] | plant injury at 15.625 g/ha (corn (Zea mays) [12])
90%: pest or weed control at 250 g/ha [2]

CN1C[C@@H](c2ccc(C(F)(F)F)cc2)[C@H](C(=O)Nc2cc(C(C)(C)C)[nH]n2)C1=O (racemic) [Compound 1545]
0%: pest or weed control at 15.625 g/ha [1] | pest or weed control at 62.5 g/ha [1] | pest or weed control at 250 g/ha [1] | pest or weed control at 15.625 g/ha [2] | pest or weed control at 62.5 g/ha [2] | pest or weed control at 250 g/ha [2] | pest or weed control at 15.625 g/ha [3] | pest or weed control at 62.5 g/ha [3] | pest or weed control at 250 g/ha [3] | pest or weed control at 15.625 g/ha [4] | pest or weed control at 62.5 g/ha [4] | pest or weed control at 250 g/ha [4] | pest or weed control at 62.5 g/ha [5] | pest or weed control at 250 g/ha [5] | plant injury at 15.625 g/ha (corn (Zea mays) [6]) | plant injury at 62.5 g/ha (corn (Zea mays) [6]) | plant injury at 250 g/ha (corn (Zea mays) [6]) | pest or weed control at 15.625 g/ha [7] | pest or weed control at 62.5 g/ha [7] | pest or weed control at 250 g/ha [7] | pest or weed control at 15.625 g/ha [8] | pest or weed control at 62.5 g/ha [8] | pest or weed control at 250 g/ha [8] | pest or weed control at 15.625 g/ha [9] | pest or weed control at 62.5 g/ha [9] | pest or weed control at 250 g/ha [9] | pest or weed control at 15.625 g/ha [10] | pest or weed control at 62.5 g/ha [10] | pest or weed control at 250 g/ha [10] | pest or weed control at 15.625 g/ha [11] | pest or weed control at 62.5 g/ha [11] | pest or weed control at 250 g/ha [11] | plant injury at 15.625 g/ha (corn (Zea mays) [12]) | plant injury at 62.5 g/ha (corn (Zea mays) [12]) | plant injury at 250 g/ha (corn (Zea mays) [12])
